Laboratory results taken from US20030061633A1, “Modified dhps genes” (priority 1999, published 2003).

Legend:
E. coli DHPS = E. coli DHPS (Escherichia coli, UniProt P0A6L2); settings: read-out: I50 of E. coli DHPS for lysine; cited from earlier work
[1] = tested on: dihydrodipicolinate synthase (DHPS); settings: cited from earlier work
DHPS = DHPS enzyme activity in transgenic tubers (O-aminobenzaldehyde method); assay type: biochemical; settings: transformed (mutant DHPS) versus control potato tubers
Procedure: Microtubers or mature tubers were homogenised with mortar and pestle in an equal volume of cold 100 mM Tris-HCl pH 7.5 containing 2 mM EDTA, 1.4% sodium ascorbate, 1 mM phenylmethylsulphonilfluoride and 0.5 Tg/ml leupeptin. Following 5 min. centrifugation (16,000 g at 4° C.) the supernatant is collected. DHPS activity was measured using the O-aminobenzaldehyde (O-ABA) method of Yugari and Gilvarg (Yugari, Y. and Gilvarg, C. (1965) J. Biol. Chem. 240: 4710-4716).

Chain of E. coli DHPS (P0A6L2 whole entry): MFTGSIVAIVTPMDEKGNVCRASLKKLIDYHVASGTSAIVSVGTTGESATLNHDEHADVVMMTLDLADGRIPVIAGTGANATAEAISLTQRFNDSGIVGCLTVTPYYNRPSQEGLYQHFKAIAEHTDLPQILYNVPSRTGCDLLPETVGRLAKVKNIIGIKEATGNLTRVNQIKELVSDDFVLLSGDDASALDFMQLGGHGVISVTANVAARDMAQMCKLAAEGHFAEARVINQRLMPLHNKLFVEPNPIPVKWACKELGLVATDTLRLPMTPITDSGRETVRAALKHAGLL

SMILES | IC50 (E. coli DHPS) | sensitivity of plant DHPS to lysine inhibition relative to E. coli DHPS ([1]; more sensitive than E. coli DHPS) | sensitivity of plant DHPS to lysine inhibition relative to plant lysine-sensitive AKs ([1]; more sensitive than plant lysine-sensitive AKs) | AEC sensitivity of DHPS activity (DHPS)
NCCCC[C@H](N)C(=O)O [lysine] | ~1000 µM | about 100 fold | about 10 fold | 
NCCSC[C@H](N)C(=O)O [AEC, S-(2-aminoethyl)-L-cysteine] |  |  |  | reduced
